Patent US8642508B2, “Complex for use in stabilizing herbicidal compositions and methods for synthesizing and using” (Bayer Cropscience LP, priority 2005, dated 2014)

Legend:
Type in all cases: physicochemical
[1] = Long-term storage stability, Comparative Example 2 mixture (no buffer); conditions: Comparative Example 2 formulation
Experimental: A mixture of fenoxaprop p-ethyl, mefenpyr diethyl, pyrasulfotole, and fillers was prepared in similar manner as in Table 1 but without a buffer system of the invention (see Table 3).
(§1) The mixture was tested for long-term storage stability by subjecting separate samples to different temperatures for eight weeks.

[2] = Long-term storage stability, Comparative Example 5 emulsifiable concentrate with bromoxynil mixed esters (triethylamine buffer); conditions: Comparative Example 5 formulation
Experimental: An emulsifiable concentrate of fenoxaprop p-ethyl, mefenpyr diethyl, pyrasulfotole and bromoxynil mixed esters was prepared. Triethylamine, a buffer that is not capable of complexing was selected as the buffer. The mixture of Table 9 was prepared by mixing the liquid ingredients, then the solid ingredients at 50° C.
as §1

[3] = Long-term storage stability, Example 4 emulsifiable concentrate with bromoxynil mixed esters (triethanolamine buffer); conditions: Example 4 formulation
Experimental: Triethanolamine, a buffer capable of complexing was selected as the buffer. The mixture of Table 7 was prepared by mixing the liquid ingredients, then the solid ingredients at 50° C.
as §1

[4] = Long-term storage stability, Comparative Example 1 emulsifiable concentrate (triethanolamine buffer); conditions: Comparative Example 1 formulation
Experimental: An emulsifiable concentrate of fenoxaprop-ethyl, mefenpyr diethyl, and pyrasulfotole and fillers was prepared. Triethanolamine, a buffer capable of hydrogen bonding, was selected as the buffer. The mixture of Table 1 was prepared by mixing the liquid ingredients, then the solid ingredients at 50° C.
as §1

[5] = Long-term storage stability 1 year room temperature, Example 7 emulsifiable concentrate (triethanolamine + DBSCa); conditions: Example 7 formulation; 1 year @ room temp
Experimental: In this example, an emulsifiable concentrate of fenoxaprop p-ethyl, mefenpyr diethyl, pyrasulfotole and bromoxynil mixed esters was prepared. Triethanolamine, a buffer that is capable of hydrogen bonding, was selected as the buffer. Dodecylbenzenesulfontate calcium, also known as DBSCa was also used to provide a calcium cation for the complex. The mixture of Table 13 was prepared by mixing the liquid ingredients, then the solid ingredients at 50° C.
The mixture was tested for long-term storage stability by subjecting separate samples to room temperatures for 1 year.

[6] = Long-term storage stability, Comparative Example 3 emulsifiable concentrate (triethylamine buffer); conditions: Comparative Example 3 formulation
Experimental: An emulsifiable concentrate of fenoxaprop p-ethyl, mefenpyr diethyl, and pyrasulfotole was prepared. Triethylamine, a buffer that is not capable of complexing or forming a coordination complex or hydrogen bonding, was selected as the buffer. The mixture of Table 5 was prepared by mixing the liquid ingredients, then the solid ingredients at 50° C.
as §1

[7] = Long-term storage stability, Example 8 mixture (triethanolamine, without DBSCa); conditions: Example 8 formulation
Experimental: as §1

[8] = Long-term storage stability, Comparative Example 6 mixture with bromoxynil mixed esters (no buffer); conditions: Comparative Example 6 formulation
Experimental: as §1

[9] = 8 weeks @ 40° C., listed as pyrasulfotole

With `CCOC(=O)[C@@H](C)Oc1ccc(Oc2nc3ccc(Cl)cc3o2)cc1` [Fenoxaprop p-ethyl, fenoxaprop p-ethyl] the “Avg. Wt % active ingredient” value ([1]; 8 weeks @ 0° C.) was 8.20 Wt %, the “Avg. Wt % active ingredient” value ([1]; 8 weeks @ 40° C.) was 2.64 Wt % and the “change from 0° C.” value ([1]; 8 weeks @ 40° C.) was −67.80%. For the same compound, the “Avg. Wt % active ingredient” value ([1]; 8 weeks @ 50° C.) was 0.91 Wt %, the “change from 0° C.” value ([1]; 8 weeks @ 50° C.) was −88.90% and the “Avg. Wt % active ingredient” value ([1]; 8 weeks @ room temp.) was 6.49 Wt %. For the same compound, the “change from 0° C.” value ([1]; 8 weeks @ room temp.) was −20.85%, the “Avg. Wt % active ingredient” value ([2]; 8 weeks @ 0° C.) was 4.30 Wt % and the “Avg. Wt % active ingredient” value ([2]; 8 weeks @ 40° C.) was 4.33 Wt %. The “change from 0° C.” value ([2]; 8 weeks @ 40° C.) was 0.68%, the “Avg. Wt % active ingredient” value ([2]; 8 weeks @ room temp.) was 4.33 Wt % and the “change from 0° C.” value ([2]; 8 weeks @ room temp.) was 0.07%. The “Avg. Wt % active ingredient” value ([3]; 8 weeks @ 0° C.) was 4.32 Wt %, the “Avg. Wt % active ingredient” value ([3]; 8 weeks @ 40° C.) was 3.96 Wt % and the “change from 0° C.” value ([3]; 8 weeks @ 40° C.) was −8.25%. The “Avg. Wt % active ingredient” value ([4]; 8 weeks @ 0° C.) was 9.41 Wt %, the “Avg. Wt % active ingredient” value ([4]; 8 weeks @ 40° C.) was 9.00 Wt % and the “change from 0° C.” value ([4]; 8 weeks @ 40° C.) was −4.31%. For the same compound, the “Avg. Wt % active ingredient” value ([4]; 8 weeks @ 50° C.) was 8.58 Wt %, the “change from 0° C.” value ([4]; 8 weeks @ 50° C.) was −8.83% and the “Avg. Wt % active ingredient” value ([4]; 8 weeks @ room temp.) was 9.34 Wt %. The “change from 0° C.” value ([4]; 8 weeks @ room temp.) was −0.69%, the “Avg. Wt % active ingredient” value [5] was 7.95 Wt % and the Change from expected [5] was −0.625%. For the same compound, the “Avg. Wt % active ingredient” value ([6]; 8 weeks @ 0° C.) was 2.93 Wt %, the “Avg. Wt % active ingredient” value ([6]; 8 weeks @ 40° C.) was 2.80 Wt % and the “change from 0° C.” value ([6]; 8 weeks @ 40° C.) was −4.37%. For the same compound, the “Avg. Wt % active ingredient” value ([6]; 8 weeks @ 50° C.) was 2.74 Wt %, the “change from 0° C.” value ([6]; 8 weeks @ 50° C.) was −6.39% and the “Avg. Wt % active ingredient” value ([6]; 8 weeks @ room temp.) was 2.89 Wt %. The “change from 0° C.” value ([6]; 8 weeks @ room temp.) was −1.19%, the “Avg. Wt % active ingredient” value ([7]; 8 weeks @ 0° C.) was 4.33 Wt % and the “Avg. Wt % active ingredient” value ([7]; 8 weeks @ 40° C.) was 4.00 Wt %. The “change from 0° C.” value ([7]; 8 weeks @ 40° C.) was −5.75%, the “Avg. Wt % active ingredient” value ([8]; 8 weeks @ 0° C.) was 6.97 Wt % and the “Avg. Wt % active ingredient” value ([8]; 8 weeks @ 40° C.) was 2.34 Wt %. The “change from 0° C.” value ([8]; 8 weeks @ 40° C.) was −66.43%, the “Avg. Wt % active ingredient” value ([8]; 8 weeks @ room temp.) was 6.15 Wt % and the “change from 0° C.” value ([8]; 8 weeks @ room temp.) was −11.76%.
In the case of `CCOC(=O)C1=NN(c2ccc(Cl)cc2Cl)C(C)(C(=O)OCC)C1` (stereo not drawn) [Mefenpyr diethyl, mefenpyr diethyl], the “Avg. Wt % active ingredient” value ([1]; 8 weeks @ 0° C.) is reported as 3.81 Wt %, the “Avg. Wt % active ingredient” value ([1]; 8 weeks @ 40° C.) is reported as 3.85 Wt % and the “change from 0° C.” value ([1]; 8 weeks @ 40° C.) is reported as −1.05%. For the same compound, the “Avg. Wt % active ingredient” value ([1]; 8 weeks @ 50° C.) was 3.97 Wt %, the “change from 0° C.” value ([1]; 8 weeks @ 50° C.) was −4.20% and the “Avg. Wt % active ingredient” value ([1]; 8 weeks @ room temp.) was 4.01 Wt %. The “change from 0° C.” value ([1]; 8 weeks @ room temp.) was “+5.24%”, the “Avg. Wt % active ingredient” value ([2]; 8 weeks @ 0° C.) was 1.73 Wt % and the “Avg. Wt % active ingredient” value ([2]; 8 weeks @ 40° C.) was 1.75 Wt %. The “change from 0° C.” value ([2]; 8 weeks @ 40° C.) was 0.88%, the “Avg. Wt % active ingredient” value ([2]; 8 weeks @ room temp.) was 1.75 Wt % and the “change from 0° C.” value ([2]; 8 weeks @ room temp.) was 0.77%. The “Avg. Wt % active ingredient” value ([3]; 8 weeks @ 0° C.) was 1.82 Wt %, the “Avg. Wt % active ingredient” value ([3]; 8 weeks @ 40° C.) was 1.80 Wt % and the “change from 0° C.” value ([3]; 8 weeks @ 40° C.) was −0.92%. The “Avg. Wt % active ingredient” value ([4]; 8 weeks @ 0° C.) was 3.77 Wt %, the “Avg. Wt % active ingredient” value ([4]; 8 weeks @ 40° C.) was 3.74 Wt % and the “change from 0° C.” value ([4]; 8 weeks @ 40° C.) was −0.65%. For the same compound, the “Avg. Wt % active ingredient” value ([4]; 8 weeks @ 50° C.) was 3.72 Wt %, the “change from 0° C.” value ([4]; 8 weeks @ 50° C.) was −1.17% and the “Avg. Wt % active ingredient” value ([4]; 8 weeks @ room temp.) was 3.76 Wt %. The “change from 0° C.” value ([4]; 8 weeks @ room temp.) was −0.17%, the “Avg. Wt % active ingredient” value ([6]; 8 weeks @ 0° C.) was 3.80 Wt % and the “Avg. Wt % active ingredient” value ([6]; 8 weeks @ 40° C.) was 3.72 Wt %. The “change from 0° C.” value ([6]; 8 weeks @ 40° C.) was −2.10%, the “Avg. Wt % active ingredient” value ([6]; 8 weeks @ 50° C.) was 3.73 Wt % and the “change from 0° C.” value ([6]; 8 weeks @ 50° C.) was −1.93%. For the same compound, the “Avg. Wt % active ingredient” value ([6]; 8 weeks @ room temp.) was 3.77 Wt %, the “change from 0° C.” value ([6]; 8 weeks @ room temp.) was −0.87% and the “Avg. Wt % active ingredient” value ([7]; 8 weeks @ 0° C.) was 1.74 Wt %. For the same compound, the “Avg. Wt % active ingredient” value ([7]; 8 weeks @ 40° C.) was 1.72 Wt %, the “change from 0° C.” value ([7]; 8 weeks @ 40° C.) was −1.29% and the “Avg. Wt % active ingredient” value ([8]; 8 weeks @ 0° C.) was 2.98 Wt %. The “Avg. Wt % active ingredient” value ([8]; 8 weeks @ 40° C.) was 3.01 Wt %, the “change from 0° C.” value ([8]; 8 weeks @ 40° C.) was 1.01% and the “Avg. Wt % active ingredient” value ([8]; 8 weeks @ room temp.) was 3.00 Wt %. For the same compound, the “change from 0° C.” value ([8]; 8 weeks @ room temp.) was 0.67%.
In the case of `Cc1nn(C)c(O)c1C(=O)c1ccc(C(F)(F)F)cc1S(C)(=O)=O` [Pyrasulfotole, pyrasulfotole], the “Avg. Wt % active ingredient” value ([1]; 8 weeks @ 0° C.) is reported as 4.76 Wt %, the “Avg. Wt % active ingredient” value ([1]; 8 weeks @ 40° C.) is reported as 4.69 Wt % and the “change from 0° C.” value ([1]; 8 weeks @ 40° C.) is reported as −1.47%. The “Avg. Wt % active ingredient” value ([1]; 8 weeks @ 50° C.) was 4.54 Wt %, the “change from 0° C.” value ([1]; 8 weeks @ 50° C.) was −4.62% and the “Avg. Wt % active ingredient” value ([1]; 8 weeks @ room temp.) was 4.75 Wt %. The “change from 0° C.” value ([1]; 8 weeks @ room temp.) was −0.21%, the “Avg. Wt % active ingredient” value ([2]; 8 weeks @ 0° C.) was 1.38 Wt % and the “Avg. Wt % active ingredient” value ([2]; 8 weeks @ 40° C.) was 1.26 Wt %. The “change from 0° C.” value ([2]; 8 weeks @ 40° C.) was −9.04%, the “change from 0° C.” value [2, 9] was −9.04% and the “Avg. Wt % active ingredient” value ([2]; 8 weeks @ room temp.) was 1.30 Wt %. For the same compound, the “change from 0° C.” value ([2]; 8 weeks @ room temp.) was −5.80%, the “Avg. Wt % active ingredient” value ([3]; 8 weeks @ 0° C.) was 1.42 Wt % and the “Avg. Wt % active ingredient” value ([3]; 8 weeks @ 40° C.) was 1.40 Wt %. For the same compound, the “change from 0° C.” value ([3]; 8 weeks @ 40° C.) was −1.30%, the “change from 0° C.” value [3, 9] was −1.30% and the “Avg. Wt % active ingredient” value ([4]; 8 weeks @ 0° C.) was 5.57 Wt %. The “Avg. Wt % active ingredient” value ([4]; 8 weeks @ 40° C.) was 5.53 Wt %, the “change from 0° C.” value ([4]; 8 weeks @ 40° C.) was −0.82% and the “Avg. Wt % active ingredient” value ([4]; 8 weeks @ 50° C.) was 5.51 Wt %. The “change from 0° C.” value ([4]; 8 weeks @ 50° C.) was −1.12%, the “Avg. Wt % active ingredient” value ([4]; 8 weeks @ room temp.) was 5.67 Wt % and the “change from 0° C.” value ([4]; 8 weeks @ room temp.) was 1.71%. The “Avg. Wt % active ingredient” value [5] was 3.14 Wt %, the Change from expected [5] was −3.083% and the “Avg. Wt % active ingredient” value ([6]; 8 weeks @ 0° C.) was 5.38 Wt %. The “Avg. Wt % active ingredient” value ([6]; 8 weeks @ 40° C.) was 5.43 Wt %, the “change from 0° C.” value ([6]; 8 weeks @ 40° C.) was 0.85% and the “Avg. Wt % active ingredient” value ([6]; 8 weeks @ 50° C.) was 5.60 Wt %. For the same compound, the “change from 0° C.” value ([6]; 8 weeks @ 50° C.) was 4.07%, the “Avg. Wt % active ingredient” value ([6]; 8 weeks @ room temp.) was 5.46 Wt % and the “change from 0° C.” value ([6]; 8 weeks @ room temp.) was 1.51%. For the same compound, the “Avg. Wt % active ingredient” value ([7]; 8 weeks @ 0° C.) was 1.74 Wt %, the “Avg. Wt % active ingredient” value ([7]; 8 weeks @ 40° C.) was 1.65 Wt % and the “change from 0° C.” value ([7]; 8 weeks @ 40° C.) was −4.81%. For the same compound, the “Avg. Wt % active ingredient” value ([8]; 8 weeks @ 0° C.) was 3.26 Wt %, the “Avg. Wt % active ingredient” value ([8]; 8 weeks @ 40° C.) was 2.81 Wt % and the “change from 0° C.” value ([8]; 8 weeks @ 40° C.) was −13.8%. For the same compound, the “Avg. Wt % active ingredient” value ([8]; 8 weeks @ room temp.) was 3.01 Wt % and the “change from 0° C.” value ([8]; 8 weeks @ room temp.) was −7.67%.
